{"source": "patent US12378302B2", "about": "“Fusion molecules and uses thereof” (Foundation Medicine, Inc., priority 2012, dated 2025)", "origin": "cited, not measured here", "key": {"MEK": {"test_system": "MEK", "conditions": "read-out: IC50 against MEK"}, "PDGFR": {"test_system": "PDGFR", "conditions": "read-out: IC50 against PDGFR"}, "EGFR": {"molecular_target": "EGFR (Homo sapiens, UniProt P00533)", "sequence (P00533 25-1210)": "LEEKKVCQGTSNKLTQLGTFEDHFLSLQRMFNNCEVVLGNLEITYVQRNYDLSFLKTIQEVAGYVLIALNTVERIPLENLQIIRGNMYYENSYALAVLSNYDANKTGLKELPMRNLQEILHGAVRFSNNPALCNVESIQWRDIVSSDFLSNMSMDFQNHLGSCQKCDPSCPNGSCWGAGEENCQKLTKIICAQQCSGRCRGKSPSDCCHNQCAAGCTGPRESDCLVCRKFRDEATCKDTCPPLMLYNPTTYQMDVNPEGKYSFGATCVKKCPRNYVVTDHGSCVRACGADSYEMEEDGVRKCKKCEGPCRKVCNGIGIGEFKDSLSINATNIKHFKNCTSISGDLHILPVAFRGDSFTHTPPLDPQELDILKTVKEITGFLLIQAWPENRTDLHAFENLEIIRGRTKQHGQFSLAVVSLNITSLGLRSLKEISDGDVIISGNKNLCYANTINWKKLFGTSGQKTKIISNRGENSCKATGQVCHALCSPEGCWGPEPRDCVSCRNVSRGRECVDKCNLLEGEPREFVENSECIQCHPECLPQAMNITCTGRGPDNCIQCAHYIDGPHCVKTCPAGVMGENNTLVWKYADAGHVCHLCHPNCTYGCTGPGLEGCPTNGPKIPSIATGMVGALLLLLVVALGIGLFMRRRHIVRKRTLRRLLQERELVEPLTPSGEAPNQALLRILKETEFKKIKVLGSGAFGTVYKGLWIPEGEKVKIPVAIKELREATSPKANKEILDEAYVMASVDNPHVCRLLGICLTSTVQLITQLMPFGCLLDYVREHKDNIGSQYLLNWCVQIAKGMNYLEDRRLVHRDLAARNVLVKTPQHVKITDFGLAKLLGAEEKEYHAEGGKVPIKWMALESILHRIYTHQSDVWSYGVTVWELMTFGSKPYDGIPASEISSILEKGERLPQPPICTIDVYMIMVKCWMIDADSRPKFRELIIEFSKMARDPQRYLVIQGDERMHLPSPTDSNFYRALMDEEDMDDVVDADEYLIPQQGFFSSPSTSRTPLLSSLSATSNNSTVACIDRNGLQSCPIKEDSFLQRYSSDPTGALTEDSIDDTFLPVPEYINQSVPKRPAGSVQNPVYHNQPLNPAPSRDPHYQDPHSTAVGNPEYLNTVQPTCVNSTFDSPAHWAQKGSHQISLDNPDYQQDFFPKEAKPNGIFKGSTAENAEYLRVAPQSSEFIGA"}, "[1]": {"test_system": "Abl1, AKT3, c-RAF, CamK1, CDK2, c-Met"}, "MEK1": {"molecular_target": "MEK1 (Homo sapiens, UniProt Q02750)", "sequence (Q02750 whole entry, species assumed)": "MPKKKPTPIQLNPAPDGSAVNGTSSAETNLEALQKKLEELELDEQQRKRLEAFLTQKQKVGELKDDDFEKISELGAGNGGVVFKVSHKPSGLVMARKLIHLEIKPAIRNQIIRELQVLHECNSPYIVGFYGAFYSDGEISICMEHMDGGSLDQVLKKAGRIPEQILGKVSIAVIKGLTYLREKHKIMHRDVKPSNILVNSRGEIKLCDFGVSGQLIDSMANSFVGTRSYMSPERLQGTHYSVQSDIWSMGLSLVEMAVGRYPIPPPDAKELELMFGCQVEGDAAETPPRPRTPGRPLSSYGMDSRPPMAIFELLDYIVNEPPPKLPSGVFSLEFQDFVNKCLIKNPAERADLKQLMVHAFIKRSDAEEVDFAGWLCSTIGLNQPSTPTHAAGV", "conditions": "read-out: IC50 against MEK1"}, "[2]": {"test_system": "Flk-1 and FGFR1 trans-phosphorylation"}, "[3]": {"test_system": "IGF-1R, Met, Src, Lck, Zap70, Abl and CDK2"}, "[4]": {"test_system": "cytokine production such as IL-1, TNF and IL-6", "conditions": "clinical trials"}, "MEK1/2": {"test_system": "MEK1/2", "conditions": "read-out: IC50 against MEK1/2"}, "ALK": {"molecular_target": "ALK (Homo sapiens, UniProt Q9UM73)", "sequence (Q9UM73 19-1620)": "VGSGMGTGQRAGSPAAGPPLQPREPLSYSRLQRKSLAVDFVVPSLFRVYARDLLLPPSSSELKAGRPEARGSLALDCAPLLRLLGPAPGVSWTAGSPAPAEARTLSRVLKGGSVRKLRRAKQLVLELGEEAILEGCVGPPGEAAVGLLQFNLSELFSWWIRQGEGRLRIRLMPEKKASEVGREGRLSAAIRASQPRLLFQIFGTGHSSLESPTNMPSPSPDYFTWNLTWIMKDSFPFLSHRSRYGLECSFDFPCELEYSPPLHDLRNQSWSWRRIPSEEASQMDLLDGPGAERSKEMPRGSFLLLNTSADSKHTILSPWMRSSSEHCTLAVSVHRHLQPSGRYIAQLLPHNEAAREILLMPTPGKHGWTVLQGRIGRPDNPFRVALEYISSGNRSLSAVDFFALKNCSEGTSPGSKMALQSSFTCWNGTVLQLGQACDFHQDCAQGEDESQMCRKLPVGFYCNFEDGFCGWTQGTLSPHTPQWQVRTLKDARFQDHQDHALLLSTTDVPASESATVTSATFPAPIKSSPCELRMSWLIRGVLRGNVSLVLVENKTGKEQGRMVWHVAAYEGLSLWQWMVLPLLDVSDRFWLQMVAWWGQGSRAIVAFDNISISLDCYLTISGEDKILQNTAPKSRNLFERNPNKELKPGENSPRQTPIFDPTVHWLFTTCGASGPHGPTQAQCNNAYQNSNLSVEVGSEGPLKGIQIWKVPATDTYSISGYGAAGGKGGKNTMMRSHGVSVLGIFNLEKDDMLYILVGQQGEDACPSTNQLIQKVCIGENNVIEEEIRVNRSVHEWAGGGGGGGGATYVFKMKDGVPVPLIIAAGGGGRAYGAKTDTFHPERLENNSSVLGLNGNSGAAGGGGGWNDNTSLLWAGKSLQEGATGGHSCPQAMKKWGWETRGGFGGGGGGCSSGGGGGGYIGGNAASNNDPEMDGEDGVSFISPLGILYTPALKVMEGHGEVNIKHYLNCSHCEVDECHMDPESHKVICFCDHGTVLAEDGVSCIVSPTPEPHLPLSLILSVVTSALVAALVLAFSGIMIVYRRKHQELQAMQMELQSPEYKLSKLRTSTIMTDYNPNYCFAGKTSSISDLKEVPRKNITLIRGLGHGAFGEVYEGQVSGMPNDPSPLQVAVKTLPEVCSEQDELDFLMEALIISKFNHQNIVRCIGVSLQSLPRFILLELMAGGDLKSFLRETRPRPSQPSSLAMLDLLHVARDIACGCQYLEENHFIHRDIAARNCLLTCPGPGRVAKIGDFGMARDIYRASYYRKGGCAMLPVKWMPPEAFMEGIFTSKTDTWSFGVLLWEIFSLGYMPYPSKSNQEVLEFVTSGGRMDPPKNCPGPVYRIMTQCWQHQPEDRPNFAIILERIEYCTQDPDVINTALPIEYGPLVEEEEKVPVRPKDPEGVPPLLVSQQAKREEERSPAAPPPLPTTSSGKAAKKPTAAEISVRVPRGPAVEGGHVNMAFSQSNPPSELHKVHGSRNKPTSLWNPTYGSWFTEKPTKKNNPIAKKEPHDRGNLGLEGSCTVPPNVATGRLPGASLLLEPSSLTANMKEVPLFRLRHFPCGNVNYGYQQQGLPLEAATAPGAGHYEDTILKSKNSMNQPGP", "conditions": "read-out: IC50 ALK"}, "CSF-1R": {"molecular_target": "CSF-1R (Homo sapiens, UniProt P07333)", "sequence (P07333 20-972, species assumed)": "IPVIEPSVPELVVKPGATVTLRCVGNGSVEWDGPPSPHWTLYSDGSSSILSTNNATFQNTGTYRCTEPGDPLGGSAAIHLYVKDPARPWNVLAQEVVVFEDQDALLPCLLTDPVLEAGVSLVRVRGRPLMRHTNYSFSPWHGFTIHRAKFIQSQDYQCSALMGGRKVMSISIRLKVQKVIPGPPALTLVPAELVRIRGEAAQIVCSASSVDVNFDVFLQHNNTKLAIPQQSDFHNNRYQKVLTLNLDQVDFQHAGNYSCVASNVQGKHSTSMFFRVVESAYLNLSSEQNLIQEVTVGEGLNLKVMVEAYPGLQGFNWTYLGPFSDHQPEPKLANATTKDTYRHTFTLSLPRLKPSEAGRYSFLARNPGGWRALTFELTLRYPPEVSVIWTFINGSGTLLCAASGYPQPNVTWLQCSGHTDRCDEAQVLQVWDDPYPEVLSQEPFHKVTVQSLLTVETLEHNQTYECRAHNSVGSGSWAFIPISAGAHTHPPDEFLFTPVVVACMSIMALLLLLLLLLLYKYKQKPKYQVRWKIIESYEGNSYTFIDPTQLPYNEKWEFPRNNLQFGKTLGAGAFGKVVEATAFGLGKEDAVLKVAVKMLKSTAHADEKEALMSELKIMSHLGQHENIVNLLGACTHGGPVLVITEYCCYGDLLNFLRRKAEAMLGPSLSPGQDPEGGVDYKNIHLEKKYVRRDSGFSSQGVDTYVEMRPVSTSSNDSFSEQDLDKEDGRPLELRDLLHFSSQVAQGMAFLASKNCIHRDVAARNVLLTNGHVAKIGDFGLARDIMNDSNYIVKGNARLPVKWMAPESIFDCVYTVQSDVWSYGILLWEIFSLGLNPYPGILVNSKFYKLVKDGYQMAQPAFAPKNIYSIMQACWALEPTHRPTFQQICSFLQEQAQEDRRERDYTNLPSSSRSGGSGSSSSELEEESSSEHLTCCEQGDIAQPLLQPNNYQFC", "conditions": "read-out: IC50 against CSF-1R"}, "[5]": {"test_system": "MEK1, MEK2, ERK2, and JNK2"}, "c-Met [6]": {"test_system": "c-Met"}, "c-Met [7]": {"molecular_target": "c-Met (Homo sapiens, UniProt P08581)", "conditions": "read-out: IC50 against c-Met (WT/mutants)"}, "CDK1/2/3/4/7/9": {"test_system": "CDK1/2/3/4/7/9", "conditions": "range over the CDKs"}, "[8]": {"test_system": "CDK1/2/5, EGFR, FGFR, PDGFR, and InsR"}, "STAT5 phosphorylation [9]": {"test_system": "STAT5 phosphorylation"}, "[10]": {"test_system": "myeloproliferative disorders"}, "HEL92.1.7 cells [11]": {"test_system": "HEL92.1.7 cells", "conditions": "read-out: IC50 antiproliferative activity"}, "HEL92.1.7 cells [12]": {"test_system": "HEL92.1.7 cells", "conditions": "read-out: IC50 antiproliferative activity in vitro"}, "[13]": {"test_system": "myeloproliferative disorders", "remark": "listed apart in the source"}, "STAT5 phosphorylation [14]": {"test_system": "STAT5 phosphorylation", "conditions": "read-out: IC50 for prevention of STAT5 phosphorylation"}, "CaMK": {"molecular_target": "CaMK", "conditions": "competitively with ATP"}, "[15]": {"test_system": "Erk1, MKK3, MKK4, c-JUN, PKC, PKA, or CamKII"}, "MEK2": {"molecular_target": "MEK2 (Homo sapiens, UniProt P36507)", "sequence (P36507 whole entry, species assumed)": "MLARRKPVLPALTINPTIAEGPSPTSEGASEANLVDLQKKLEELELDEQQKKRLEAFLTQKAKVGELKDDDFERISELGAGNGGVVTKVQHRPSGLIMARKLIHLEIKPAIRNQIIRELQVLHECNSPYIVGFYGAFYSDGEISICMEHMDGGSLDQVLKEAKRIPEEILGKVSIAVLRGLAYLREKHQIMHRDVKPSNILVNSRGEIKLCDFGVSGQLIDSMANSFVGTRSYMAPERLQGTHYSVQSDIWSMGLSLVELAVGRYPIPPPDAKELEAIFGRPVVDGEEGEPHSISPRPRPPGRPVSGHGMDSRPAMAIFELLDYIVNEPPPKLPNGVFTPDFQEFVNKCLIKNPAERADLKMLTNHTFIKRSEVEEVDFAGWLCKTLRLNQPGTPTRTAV", "conditions": "read-out: IC50 against MEK2"}}, "note": "pIC50, pKi: −log10 of the molar value. Like-named read-outs stand apart in the source and are kept apart here.", "data": [{"smiles": "COc1cccc(-c2cc(=O)c3ccccc3o2)c1N", "note": "[PD98059, 2-(2-amino-3-methoxyphenyl)-4H-chromen-4-one]", "values": [{"measurement": "Direct inhibition of ERK1 or ERK2", "setting": "ERK1 or ERK2", "value": "does not directly inhibit"}, {"measurement": "pIC50", "setting": "MEK", "value": "[…]"}]}, {"smiles": "COc1cc2ncc(-c3ccccc3)nc2cc1OC", "note": "[Tyrphostin AG 1296, Quinoxaline, 6,7-dimethoxy-2-phenyl-]", "values": [{"measurement": "pIC50", "setting": "PDGFR", "value": "6.30 to 6.52"}, {"measurement": "Activity against EGFR", "setting": "EGFR", "value": "no activity"}]}, {"smiles": "Cn1c(=O)c(F)c(Nc2ccc(I)cc2F)c2c(=O)n(C[C@@H](O)CO)cnc21", "note": "[TAK-733, (R)-3-(2,3-dihydroxypropyl)-6-fluoro-5-(2-fluoro-4-iodophenylamino)-8-methylpyrido[2,3-d]pyrimidine-4,7(3H,8H)-dione]", "values": [{"measurement": "Activity to Abl1, AKT3, c-RAF, CamK1, CDK2, c-Met", "setting": "[1]", "value": "inactive"}, {"measurement": "pIC50", "setting": "MEK1", "value": "~8.49"}]}, {"smiles": "Cc1[nH]c(/C=C2\\C(=O)Nc3ccccc32)c(C)c1CCC(=O)O", "note": "[SU6668, (Z)-3-(2,4-dimethyl-5-((2-oxoindolin-3-ylidene)methyl)-1H-pyrrol-3-yl)propanoic acid]", "values": [{"measurement": "Inhibition of Flk-1 and FGFR1 trans-phosphorylation", "setting": "[2]", "value": "strongly inhibits"}, {"measurement": "Activity against IGF-1R, Met, Src, Lck, Zap70, Abl and CDK2", "setting": "[3]", "value": "little activity"}]}, {"smiles": "Cn1cnc2c(F)c(Nc3ccc(Br)cc3F)c(C(=O)NOCCO)cc21", "note": "[ARRY-162, 5-((4-bromo-2-fluorophenyl)amino)-4-fluoro-N-(2-hydroxyethoxy)-1-methyl-1H-benzo[d]imidazole-6-carboxamide]", "values": [{"measurement": "Ex vivo effect on cytokine production such as IL-1, TNF and IL-6", "setting": "[4]", "value": "inhibition"}, {"measurement": "pIC50", "setting": "cellular pERK", "value": 7.96}, {"measurement": "pIC50", "setting": "MEK1/2", "value": 7.92}]}, {"smiles": "Cc1cc2c(F)c(Oc3ncnn4cc(OC[C@@H](C)O)c(C)c34)ccc2[nH]1", "note": "[Brivanib, (R)-1-(4-(4-fluoro-2-methyl-1H-indol-5-yloxy)-5-methylpyrrolo[1,2-f][1,2,4]triazin-6-yloxy)propan-2-ol]", "values": [{"measurement": "Potency against VEGFR-1 and FGFR-1", "setting": "VEGFR-1 and FGFR-1", "value": "moderate potency"}]}, {"smiles": "COc1cc(N2CCC(N)CC2)ccc1Nc1ncc(Cl)c(-c2c[nH]c3ccccc23)n1", "note": "[AZD-3463, 2-Pyrimidinamine, N-[4-(4-amino-1-piperidinyl)-2-methoxyphenyl]-5-chloro-4-(1H-indol-3-yl)-]", "values": [{"measurement": "pIC50", "setting": "ALK", "value": 7.66}]}, {"smiles": "O=C(Nc1ccc(OC(F)(F)F)cc1)c1sccc1NCc1ccnc2ccccc12", "note": "[OSI-930]", "values": [{"measurement": "Potency to Flt-1, c-Raf and Lck", "setting": "Flt-1, c-Raf and Lck", "value": "also potent"}, {"measurement": "pIC50", "setting": "CSF-1R", "value": 7.82}, {"measurement": "Activity against PDGFRα/β, Flt-3 and Abl", "setting": "PDGFRα/β, Flt-3 and Abl", "value": "low activity"}]}, {"smiles": "CN(C)Cc1cccc(N/C(=C2\\C(=O)Nc3cc(C(=O)N(C)C)ccc32)c2ccccc2)c1", "note": "[BIX 02189, (Z)-3-((3-((dimethylamino)methyl)phenylamino)(phenyl)methylene)-N,N-dimethyl-2-oxoindoline-6-carboxamide]", "values": [{"measurement": "Inhibition of closely related kinases MEK1, MEK2, ERK2, and JNK2", "setting": "[5]", "value": "does not inhibit"}]}, {"smiles": "CN(C[C@@H]1COCCO1)S(=O)(=O)Nc1ccc2ccc3ncc(-c4cnn(C)c4)cc3c(=O)c2c1", "note": "[MK-2461, N-((2R)-1,4-Dioxan-2-ylmethyl)-N-methyl-N′-[3-(1-methyl-1H-pyrazol-4-yl)-5-oxo-5H-benzo[4,5]cyclohepta[1,2-b]pyridin-7-yl]sulfamide]", "values": [{"measurement": "Potency to Ron, Flt1", "setting": "Ron, Flt1", "value": "less potent"}, {"measurement": "Selectivity of c-Met targets versus FGFR1, FGFR2, FGFR3, PDGFRβ, KDR, Flt3, Flt4, TrkA, and TrkB", "setting": "c-Met [6]", "value": "8- to 30 fold"}, {"measurement": "pIC50", "setting": "c-Met [7]", "value": "8.60 to 9.40"}]}, {"smiles": "O=C(NC[C@H](O)CO)c1ccncc1Nc1ccc(I)cc1F", "note": "[AS-703026, (S)—N-(2,3-dihydroxypropyl)-3-(2-fluoro-4-iodophenylamino) isonicotinamide]", "values": [{"measurement": "pIC50", "setting": "MM cell lines", "value": "5.70 to 8.30"}]}, {"smiles": "C=CCc1ccc(O)c(-c2ccc(O)c(CC=C)c2)c1", "note": "[Honokiol, 2-(4-hydroxy-3-prop-2-enyl-phenyl)-4-prop-2-enyl-phenol]", "values": [{"measurement": "Effect on Akt-phosphorylation", "setting": "Akt-phosphorylation", "value": "inhibits"}, {"measurement": "Effect on ERK1/2 phosphorylation", "setting": "ERK1/2 phosphorylation", "value": "promotes"}]}, {"smiles": "C[C@@H](O)[C@@H](C)Oc1nc(Nc2ccc(S(=N)(=O)C3CC3)cc2)ncc1C(F)(F)F", "note": "(stereo partly drawn) [BAY 1000394, 2-Butanol, 3-[[2-[[4-[[S(R)]—S-cyclopropylsulfonimidoyl]phenyl]amino]-5-(trifluoromethyl)-4-pyrimidinyl]oxy]-, (2R,3R)—]", "values": [{"measurement": "pIC50", "setting": "CDK1/2/3/4/7/9", "value": "7.60 to 8.30"}]}, {"smiles": "CNC(=O)c1c(F)cccc1Nc1nc(Nc2cc3c(cc2OC)CCN3C(=O)CN(C)C)nc2[nH]ccc12", "note": "[GSK1838705A, 2-(2-(1-(2-(dimethylamino)acetyl)-5-methoxyindolin-6-ylamino)-7H-pyrrolo[2,3-d]pyrimidin-4-ylamino)-6-fluoro-N-methylbenzamide]", "values": [{"measurement": "activity to other protein kinases", "setting": "other protein kinases", "value": "little activity"}]}, {"smiles": "CC(=O)Nc1cccc(-n2c(=O)n(C3CC3)c(=O)c3c(Nc4ccc(I)cc4F)n(C)c(=O)c(C)c32)c1", "note": "[Trametinib, N-(3-{3-Cyclopropyl-5-[(2-fluoro-4-iodophenyl)amino]-6,8-dimethyl-2,4,7-trioxo-3,4,6,7-tetrahydropyrido[4,3-d]pyrimidin-1(2H)-yl}phenyl)acetamide]", "values": [{"measurement": "Kinase activities of c-Raf, B-Raf, ERK1/2", "setting": "c-Raf, B-Raf, ERK1/2", "value": "does not inhibit"}]}, {"smiles": "CC(=O)c1c(C)c2cnc(Nc3ccc(N4CCNCC4)cn3)nc2n(C2CCCC2)c1=O", "note": "[PD0332991 Isethionate, Ethanesulfonic acid, 2-hydroxy-, compd. with 6-acetyl-8-cyclopentyl-5-methyl-2-[[5-(1-piperazinyl)-2-pyridinyl]amino]pyrido[2,3-d]pyrimidin-7(8H)-one (1:1)]", "values": [{"measurement": "activity against CDK1/2/5, EGFR, FGFR, PDGFR, and InsR", "setting": "[8]", "value": "no activity"}]}, {"smiles": "C[C@]12O[C@H](C[C@]1(O)CO)n1c3ccccc3c3c4c(c5c6ccccc6n2c5c31)CNC4=O", "note": "[Lestaurtinib, (9S,10S,12R)-2,3,9,10,11,12-Hexahydro-10-hydroxy-10-(hydroxymethyl)-9-methyl-9,12-epoxy-1H-diindolo[1,2,3-fg:3′,2′,l′-kl]pyrrolo[3,4-i][1, 6]benzodiazocin-1-one]", "values": [{"measurement": "pIC50", "setting": "STAT5 phosphorylation [9]", "value": "7.52 to 7.70"}, {"measurement": "effect against myeloproliferative disorders in vivo", "setting": "[10]", "value": "effective"}, {"measurement": "pIC50", "setting": "HEL92.1.7 cells [11]", "value": "7.00 to 7.52"}, {"measurement": "pIC50", "setting": "HEL92.1.7 cells [12]", "value": "7.00 to 7.52"}, {"measurement": "effect against myeloproliferative disorders in vivo", "setting": "[13]", "value": "effective"}, {"measurement": "pIC50", "setting": "STAT5 phosphorylation [14]", "value": "7.52 to 7.70"}]}, {"smiles": "COC(=O)[C@@]1(O)C[C@H]2O[C@]1(C)n1c3ccccc3c3c4c(c5c6ccccc6n2c5c31)C(=O)NC4", "note": "[K252a]", "values": [{"measurement": "pKi", "setting": "PKG", "value": 7.70}, {"measurement": "pKi", "setting": "PKC", "value": 7.60}, {"measurement": "pKi", "setting": "PKA", "value": 7.74}, {"measurement": "pKi", "setting": "CaMK", "value": 8.74}]}, {"smiles": "N#C/C(=C(/N)Sc1ccc(N)cc1)c1ccccc1C(F)(F)F", "note": "[SL327, (Z)-3-amino-3-(4-aminophenylthio)-2-(2-(trifluoromethyl)phenyl) acrylonitrile]", "values": [{"measurement": "Activity towards Erk1, MKK3, MKK4, c-JUN, PKC, PKA, or CamKII", "setting": "[15]", "value": "no activity"}, {"measurement": "pIC50", "setting": "MEK2", "value": "~6.66"}, {"measurement": "pIC50", "setting": "MEK1", "value": "~6.74"}]}, {"smiles": "COc1cc(CCc2cc(NC(=O)c3ccc(N4C[C@@H](C)N[C@@H](C)C4)cc3)n[nH]2)cc(OC)c1", "note": "[AZD4547, N-(5-(3,5-dimethoxyphenethyl)-1H-pyrazol-3-yl)-4-((3S,5R)-3,5-dimethylpiperazin-1-yl)benzamide]", "values": [{"measurement": "Activity against FGFR4, VEGFR2 (KDR)", "setting": "FGFR4, VEGFR2 (KDR)", "value": "weaker activity"}]}]}
